In the NIST ThermoML archive (doi:10.1021/je025631i):
Numbers after ± are expanded uncertainties.

Assays:
[1] = Liquid; for mass density: 293.15 K, 101.33 kPa, Vibrating tube method
[2] = refractive index (Na D-line) (dimensionless); settings: 293.15 K; 101.33 kPa; Liquid; Abbe refractometer

In the case of CC1=CCC2CC1C2(C)C (stereo unspecified) [2-pinene], the mass density [1] is reported as 858.06 ± 0.16 kg/m3, the “vapor or sublimation pressure” value ([1]; 348.15 K) is reported as 7.35 ± 0.33 kPa and the “vapor or sublimation pressure” value ([1]; 363.15 K) is reported as 13.32 ± 0.35 kPa. The “vapor or sublimation pressure” value ([1]; 382.79 K) was 26.66 ± 0.34 kPa, the “vapor or sublimation pressure” value ([1]; 383.15 K) was 26.98 ± 0.4 kPa and the “vapor or sublimation pressure” value ([1]; 405.54 K) was 53.33 ± 0.41 kPa. The “vapor or sublimation pressure” value ([1]; 429.34 K) was 101.32 ± 0.5 kPa and the refractive index [2] was 1.4657 ± 0.0003.
In the case of CCCCCCCC [octane], the mass density [1] is reported as 702.44 ± 0.18 kg/m3, the “vapor or sublimation pressure” value ([1]; 348.15 K) is reported as 19.31 ± 0.37 kPa and the “vapor or sublimation pressure” value ([1]; 356.74 K) is reported as 26.66 ± 0.3 kPa. For the same compound, the “vapor or sublimation pressure” value ([1]; 363.15 K) was 33.52 ± 0.42 kPa, the “vapor or sublimation pressure” value ([1]; 376.95 K) was 53.33 ± 0.36 kPa and the “vapor or sublimation pressure” value ([1]; 383.15 K) was 64.25 ± 0.52 kPa. The “vapor or sublimation pressure” value ([1]; 398.79 K) was 101.3 ± 0.5 kPa and the refractive index [2] was 1.3973 ± 0.0003.
